{"source": "patent US20230136075A1", "about": "“TREATMENT FOR SEPSIS-INDUCED ORGAN DYSFUNCTION” (The Florey Institute of Neuroscience and Mental Health, priority 2020, published 2023)", "test_system": "ovine sepsis induced by intravenous infusion of live E. coli", "from_the_text": "Using this model, the inventors have investigated the effect of mega dose intravenous vitamin C therapy on various parameters indicative of the progression of sepsis in sheep (Merino ewes, 35-45 kg; 1.5-2.0 years old). Sheep were divided into two groups, a vitamin C (sodium ascorbate) therapy group and a vehicle group as a control. Experimental protocols were approved by the Animal Ethics Committee of the Florey Institute of Neuroscience and Mental Health under guidelines of the National Health and Medical Research Council of Australia.\nPreparatory surgical procedures were carried out as described in Lankadeva et al. (2018b). Briefly, two preparatory surgical procedures were performed under general anaesthesia. First, a carotid artery was exteriorised into a skin fold to form a carotid arterial loop to facilitate cannulation for measurement of arterial pressure and heart rate, and for blood sampling. During the same surgical procedure, a flow probe was placed around the pulmonary artery to measure cardiac output. Animals were allowed 3-4 weeks of recovery. Second, a flow probe was implanted around a renal artery to measure renal blood flow, a renal vein was cannulated for blood sampling and fibre optic probes were inserted into the renal cortex, renal medulla (within kidneys) and parietal cortex (brain) to measure tissue perfusion, oxygen tension and temperature.\nDuring the second surgical procedure cannulae were implanted in the carotid artery for arterial pressure measurement and blood sampling and the jugular vein for infusion of fluids, vasopressors, Escherichia coli, sodium ascorbate and blood sampling, and a Foley catheter was inserted into the bladder to collect urine and monitor hourly urine output.\nFollowing three days of recovery from the second surgical procedure, the experimental protocol (see FIG. 1) was initiated in conscious sheep, to avoid the confounding effects of general anaesthesia. Animals daily food and water intake and urine output was measured on a 24-hour basis during the course of the 5-day protocol.\nFirst, a 24-hour baseline period was commenced, which included measurement of systemic haemodynamics, renal and brain perfusion and oxygenation, arterial, central venous and renal venous blood gases and lactate, and urine output. Arterial blood and urine samples were collected at set times during the experimental period.\nAfter establishment of the 24-hour baseline period, gram-negative sepsis was induced by intravenous infusion of live E. coli (isolated from a patient with sepsis at Austin Health) as described in Lankadeva et al. (2018b), administered as a loading (bolus) infusion of 2.8×10^9 colony-forming units (CFU) over 30-minutes followed by a continuous infusion of 1.26×10^9 CFU/h for 30.5 hours. No prophylactic antibiotics, sedative or analgesic agents were administered during this protocol. The description in the following paragraphs is with reference to the protocol as shown schematically in FIG. 1.\nAt 23 hours of sepsis, when sheep had fulfilled the clinical criteria for sepsis (i.e. established hypotension, tachycardia, fever, lung injury, tachypnoea, hyperlactatemia and stage 1-2 acute kidney injury) animals were resuscitated with 30 mL/kg balanced crystalloid sodium lactate (Hartmann's solution infused at approximately 2500 ml/hr) for 30 mins, from 23-23.5 hours of sepsis.\nA blocked randomization design was used to allocate sheep to treatment with sodium ascorbate or vehicle.", "key": {"[1]": {"conditions": "NaHCO3 infusion, two septic sheep"}, "[2]": {"conditions": "during the infusion of NaHCO3, two septic sheep"}}, "data": [{"smiles": "O=C([O-])O.[Na+]", "note": "[NaHCO3, sodium bicarbonate]", "values": [{"measurement": "MAP", "setting": "[1]", "value": "decreased"}, {"measurement": "RBF", "setting": "[1]", "value": "not reduced"}, {"measurement": "arterial PO2", "setting": "[1]", "value": "no improvement"}, {"measurement": "blood pH", "setting": "[1]", "value": "large increase"}, {"measurement": "blood potassium", "setting": "[1]", "value": "hypokalemia"}, {"measurement": "blood sodium", "setting": "[1]", "value": "hypernatremia"}, {"measurement": "creatinine clearance", "setting": "[1]", "value": "no reduction in plasma creatinine or increase in creatinine clearance was observed"}, {"measurement": "heart rate", "setting": "[1]", "value": "not reduced"}, {"measurement": "norepinephrine dose required", "setting": "[1]", "value": "increasing doses of norepinephrine were required"}, {"measurement": "plasma creatinine", "setting": "[1]", "value": "no reduction"}, {"measurement": "renal medullary PO2", "setting": "[1]", "value": "no improvement"}, {"measurement": "renal medullary perfusion", "setting": "[1]", "value": "no improvement"}, {"measurement": "urine flow", "setting": "[1]", "value": "urine flow increased"}, {"measurement": "body temperature", "setting": "[2]", "value": "large increases"}, {"measurement": "shivering", "setting": "[2]", "value": "intermittent shivering"}, {"measurement": "reproduction of the effects of sodium ascorbate", "setting": "hypertonic NaHCO3, equal sodium load, 8.4 g/kg over 30 minutes then 8.4 g/kg/hr for 6.5 hours, two septic sheep, data not shown", "value": "did not reproduce the effects of sodium ascorbate"}]}]}
